Patent US11980211B2, “Verbascoside and related compounds for sweetness enhancement” (International Flavors & Fragrances Inc., priority 2018, dated 2024)

Key:
[1] = Flavor profile of Luo Han Guo solution with added verbascoside or isoverbascoside; settings: Luo Han Guo solution (120 ppm)
Experimental: A Luo Han Guo (Biovittoria Ltd., New Zealand) solution was prepared in water (120 ppm). Verbascoside and isoverbascoside solutions were prepared as above (EXAMPLE II). The flavor profile of the Luo Han Guo solution with added verbascoside and isoverbascoside is reported in the following: […]

[2] = Flavor profile of sucrose solution with added verbascoside or isoverbascoside; settings: sucrose solution (4%)
Experimental: A sucrose solution (4%) was prepared in water. Each of verbascoside and isoverbascoside solutions of different concentrations was prepared in ethanol solution in water (50%). Verbascoside and isoverbascoside were evaluated at 1 and 200 ppm, respectively.
The flavor profile of the sucrose solution with added verbascoside and isoverbascoside is reported in the following: […]

CC1OC(OC2C(O)C(COC(=O)/C=C/c3ccc(O)c(O)c3)OC(OCCc3ccc(O)c(O)c3)C2O)C(O)C(O)C1O (stereo not shown) [Isoverbascoside, isoverbascoside]
overall effect (summary) [1]: enhanced overall mouthfeel and suppressed Luo Han Guo's lingering off-taste | overall effect (summary) [2]: enhanced overall mouthfeel

CC1OC(OC2C(O)C(OCCc3ccc(O)c(O)c3)OC(CO)C2OC(=O)/C=C/c2ccc(O)c(O)c2)C(O)C(O)C1O [Verbascoside, (E)-2-(3,4-dihydroxyphenyl)ethyl 3-O-(6-deoxy-α-L-mannopyranosyl)-4-[3-(3,4-dihydroxyphenyl)-2-propenoate]-β-D-Glucopyranoside]
overall effect (summary) [1]: exhibited particular effect in sweetness enhancement | overall effect (summary) [2]: exhibited particular effect in sweetness enhancement
